Counter-ions that a name gives are not always drawn.
Biological target: T1, Angiotensin converting enzyme (rabbit lung) (Oryctolagus cuniculus, UniProt P12822)
T1 construct: Angiotensin converting enzyme (rabbit lung); from tissue; host or cells: rabbit lung
T1 sequence (P12822 34-1310): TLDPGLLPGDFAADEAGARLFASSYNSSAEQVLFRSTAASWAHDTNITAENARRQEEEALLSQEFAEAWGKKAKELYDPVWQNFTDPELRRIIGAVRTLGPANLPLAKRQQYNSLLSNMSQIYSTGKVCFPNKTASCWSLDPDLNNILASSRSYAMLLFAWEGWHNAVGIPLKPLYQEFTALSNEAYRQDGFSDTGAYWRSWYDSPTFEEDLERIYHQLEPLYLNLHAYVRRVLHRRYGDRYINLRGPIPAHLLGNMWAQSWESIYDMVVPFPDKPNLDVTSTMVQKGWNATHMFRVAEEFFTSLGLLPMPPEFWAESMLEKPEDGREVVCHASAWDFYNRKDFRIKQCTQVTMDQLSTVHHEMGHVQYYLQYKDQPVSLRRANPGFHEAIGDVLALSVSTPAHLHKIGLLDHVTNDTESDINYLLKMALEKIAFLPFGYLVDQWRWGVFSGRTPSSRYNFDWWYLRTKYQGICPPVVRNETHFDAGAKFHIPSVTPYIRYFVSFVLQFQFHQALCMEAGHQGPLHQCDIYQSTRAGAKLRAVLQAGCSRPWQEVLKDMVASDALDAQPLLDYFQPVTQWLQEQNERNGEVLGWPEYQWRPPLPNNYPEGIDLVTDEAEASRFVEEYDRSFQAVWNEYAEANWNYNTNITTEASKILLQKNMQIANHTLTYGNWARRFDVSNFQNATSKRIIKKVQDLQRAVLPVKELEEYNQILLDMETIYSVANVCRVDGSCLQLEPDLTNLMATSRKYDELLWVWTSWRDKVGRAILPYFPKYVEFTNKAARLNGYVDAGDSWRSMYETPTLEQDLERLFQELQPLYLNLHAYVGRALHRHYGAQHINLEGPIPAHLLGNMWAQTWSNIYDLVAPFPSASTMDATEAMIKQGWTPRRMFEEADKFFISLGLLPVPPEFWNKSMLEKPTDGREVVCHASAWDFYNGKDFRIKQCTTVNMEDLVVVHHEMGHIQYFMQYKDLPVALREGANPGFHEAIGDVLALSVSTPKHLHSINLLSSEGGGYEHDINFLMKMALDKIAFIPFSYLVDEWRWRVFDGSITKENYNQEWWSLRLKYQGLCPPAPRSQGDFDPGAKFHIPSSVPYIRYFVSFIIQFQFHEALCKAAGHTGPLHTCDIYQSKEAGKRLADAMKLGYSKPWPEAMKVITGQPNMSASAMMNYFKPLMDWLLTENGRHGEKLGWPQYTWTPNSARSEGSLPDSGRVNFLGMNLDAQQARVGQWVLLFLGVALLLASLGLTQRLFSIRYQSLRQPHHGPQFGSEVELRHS
Assay: Inhibition of angiotensin-converting enzyme in vitro (conversion of angiotensin I into angiotensin II, fluorescence)
Assay type: biochemical
Conditions: rabbit lung ACE; 90 min preincubation at 37° C., pH 7.5; angiotensin I 250 μmol; 30 min reaction; read-out: IC50 (concentration of test substance which reduces by 50% the conversion of angiotensin I into angiotensin II)
Description: The activity of the present pyridazodiazepine derivatives in inhibiting angiotensin-converting enzyme in vitro can be determined using the test now described.
The method used is based on the method of Santos, R. A. S., Kreiger, E. M., and Greene L. J., Hypertension (1985), 7, 244-252. Angiotensin converting enzyme (rabbit lung) is incubated in the presence or absence of various concentrations of a test substance for 90 minutes at 37° C. in 0.1M potassium phosphate buffer, pH 7.5, containing 30 mmol of sodium chloride. If the test substance is an ester, it is cleaved by treatment with hog liver esterase prior to carrying out the test. The reaction is initiated by adding angiotensin I to a final concentration of 250 μmol. The final volume of the reaction mixture is 0.25 ml. After holding the reaction mixture at 37° C. for 30 minutes the reaction is terminated by adding 1.45 ml of 0.3M sodium hydroxide solution. […] of a 0.2% (weight/volume) solution of o-phthaldialdehyde in methanol are added and, after 10 minutes, the solution is acidified with 200 μl of 3M hydrochloric acid. The resulting solution is then subjected to fluorescence spectrometry using excitation and emission wavelengths of 365 nm and 500 nm, respectively, and the IC50 value is calculated. The IC50 is that concentration of test substance which reduces by 50% the conversion of angiotensin I into angiotensin II.

IC50: 0.6 nM
Compound: N=C(N)Nc1ccc(CC[C@H](N[C@H]2CCCN3CCC[C@@H](C(=O)O)N3C2=O)C(=O)O)cc1 [Example 1, 9(S)-[1(S)-carboxy-3-(4-guanidinophenyl)propylamino]-octahydro-10-oxo-6H-pyridazo[1,2-a][1,2]diazepine-1(S)-carboxylic acid dihydrobromide]

From patent US4757069A, “Pyridazodiazepine derivatives” (Hoffmann-La Roche Inc., priority 1986, dated 1988)
